Data set [1] deals with platelet rich plasma (PRP). The experiment in a line: Effect of clopidogrel and aspirin on rHuEPO-induced platelet reactivity, ex vivo platelet aggregation. The data set is classed as in vivo, male Wistar rats. Conditions: for Effect on platelet aggregatory response in rHuEPO treated rats (in words): rHuEPO (25 μg/kg, S.C.) treated rats, clopidogrel 2.5 mg/kg p.o., aspirin 75 mg/kg p.o.; for % platelet aggregation: rHuEPO 25 μg/kg s.c., Clopidogrel 2.5 mg/kg p.o., Aspirin 75 mg/kg p.o. Here is the method:
(§1) Six to eight week old male Wistar rats used and the methods and procedures described here have been reviewed and approved by the Institutional Animal Ethics Committee (IAEC). Wistar male rats were divided in groups [each group containing 6 animals (n=6)]. Control animal received vehicle only (0.9% w/v NaCl normal saline), treatment groups received three consecutive doses of Recombinant Human Erythropoietin (25 and 50 μg/kg, s.c.) at an interval of 24 hour. Blood collection was performed at 48 hour after the last injection of Erythropoietin in citrated tubes. Platelet rich plasma (PRP) was separated. Determination of ex-vivo platelet aggregation was performed by using 1) ADP as aggregation inducing agent 2) Arachidonic acid as aggregation inducing agent 3) Thrombin as aggregation inducing agent and 4) Collagen as aggregation inducing agent. Platelet aggregation was performed by turbidometric method using high through put 96-well plate. Optical density was measured at 405 nm by Spectra Max plate reader. […] Increase in platelet aggregatory response meaning increase in platelet reactivity when same concentration of aggregating agent is used.
Six to eight week old male Wistar rats were divided in groups [each group containing 6 animals (n=6)]. Control animal received vehicle only (0.9% w/v NaCl normal saline), treatment groups received three consecutive doses of Recombinant Human Erythropoietin (25 μg/kg, s.c.) at an interval of 24 hour. Aspirin (75 mg/kg p.o.), and Clopidogrel (2.5 mg/kg, p.o.) were dosed individually and in combination with each other to respective groups at 48 hour after the last injection of erythropoietin. Blood collection was performed after 2 hours of antiplatelet treatment. Platelet rich plasma (PRP) was separated. Determination of ex-vivo platelet aggregation was performed by using 1) ADP as aggregation inducing agent 2) Arachidonic acid as aggregation inducing agent 3) Thrombin as aggregation inducing agent and 4) Collagen as aggregation inducing agent.

A short description of data set [2]: Hematological parameters in 5/6 nephrectomized rats (chronic kidney disease model). The data set is classed as in vivo, male Wistar rats. The settings on record: i.v. 3 times a week for 4 weeks; for Hematocrit (%) Average / Hemoglobin (g/dL) Average / RBC count (10^6/μL) Average: 5/6 nephrectomized rats, EPO 500 IU/kg, Clopi 10 mg/kg. From the text:
(§2) Six to eight week old male Wistar rats used and the methods and procedures described here have been reviewed and approved by the Institutional Animal Ethics Committee (IAEC). We used human therapeutic dose of rHuEPO in rats and same frequency of administration as in humans (Kirkeby A et al., Thromb Haemost, 2008; 99:720-728). A 5/6 nephrectomy has been performed on male wistar rats (Toba H et al., European Journal of Pharmacology 656, 2011, 81-87) and treatment has been started after one month of nephrectomy.
(§3) The rats were divided into 5 groups (n=6): 1) a control group, which received a sham operation (SHAM control); 2) a 5/6 nephrectomized group (NPX), removed the upper and lower poles of the left kidney and after one week the entire right kidney under anesthesia (NPX vehicle); 3) a 5/6 nephrectomy+rHuEPO group, nephrectomized and injected with rHuEPO at 500 IU/kg 3 times a week intravenously (i.v.) for 4 weeks (NPX+EPO); 4) a 5/6 nephrectomized+rHuEPO+clopidogrel group, nephrectomized and administered with rHuEPO (500 IU/kg)+clopidogrel (10 mg/kg) every 3 times a week intravenously (i.v.) for 4 weeks. 5) a 5/6 nephrectomized+clopidogrel group, nephrectomized and administered with rHuEPO (500 IU/kg)+clopidogrel (10 mg/kg) every 3 times a week intravenously (i.v.) for 4 weeks.
(§4) After 4 weeks of treatment, blood samples were collected via retro-orbital route in tubes containing 3.8% tri-sodium citrate for the collection of platelet rich plasma (PRP) for ADP-induced platelet aggregation studies. Blood samples were also collected for hematological analysis in tubes containing 5% EDTA. Serum samples were used for measurement of various kidney biomarkers such as creatinine, urea, uric acid, blood urea nitrogen and total protein.

Data set [3] has as its system platelet rich plasma (PRP). The experiment in a line: Ex vivo ADP-induced platelet aggregation in 5/6 nephrectomized rats (chronic kidney disease model). The settings on record: i.v. 3 times a week for 4 weeks; for Platelet aggregation (%) Average: 2.5 μM ADP, 5/6 nephrectomized rats, EPO 500 IU/kg, Clopi 10 mg/kg. The arrangement: species or system male Wistar rats.
From the text: as §2, §3, §4
Increase in platelet aggregatory response meaning increase in platelet reactivity when same concentration of aggregating agent is used.

Data set [4] in a line: Kidney biomarkers in serum of 5/6 nephrectomized rats (chronic kidney disease model). The data set is classed as in vivo, male Wistar rats. The settings on record: i.v. 3 times a week for 4 weeks.
From the text: as §2, §3, §4
There was increase in the serum creatinine, serum urea, serum uric acid, blood urea nitrogen and decrease in serum total protein in nephrectomized animals. […] There was improvement in the kidney function when combination of rHuEPO and antiplatelet agent has been given every 3 times a week intravenously (i.v.) for 4 weeks in nephrectomized rats (FIGS. 6a, 6b, 6c, 6d and 6e).

The test system of data set [5] is platelet rich plasma (PRP). The experiment in a line: Effect of rHuEPO on platelet reactivity, ex vivo platelet aggregation (ADP, arachidonic acid, thrombin, collagen). The data set is classed as in vivo, male Wistar rats. The settings on record: for % platelet aggregation: s.c. treated rats. Here is the method:
as §1

Data set [6] is described as follows: Bleeding time, tail transaction test. The data set is classed as in vivo, male Wistar rats. Conditions: rHuEPO 25 μg/kg s.c., Clopidogrel 2.5 mpk, Aspirin 75 mpk; Wistar rats. Here is the method:
Six to eight week old male Wistar rats were divided in groups [each group containing 6 animals (n=6)]. Control animal received vehicle only (0.9% w/v NaCl normal saline), treatment groups received three consecutive doses of Recombinant Human Erythropoietin (25 μg/kg, S.C.) at an interval of 24 hour. Aspirin (75 mg/kg p.o.), and Clopidogrel (2.5 mg/kg, p.o.) individually and in combination with each other were dosed to respective groups at 48 hour after the last injection of Erythropoietin. Bleeding time experiment using tail transaction test was performed.

Where [7] appears, read: 5/6 nephrectomized rats, EPO 500 IU/kg, Clopi 10 mg/kg.

This note sets out measurements from patent US20130203668A1, “PHARMACEUTICAL COMPOSITION COMPRISING ANTIPLATELET AGENTS AND AN ERYTHROPOIESIS STIMULATING AGENT” (CADILA HEALTHCARE LIMITED, priority 2010, published 2013).

With `CC(=O)Oc1ccccc1C(=O)O` [Aspirin, reference compound], the “Effect on platelet aggregatory response in rHuEPO treated rats (in words)” value in data set [1] was “further normalizes the hyper reactive platelets”.
In the case of `COC(=O)[C@H](c1ccccc1Cl)N1CCc2sccc2C1` [Clopidogrel, reference compound], in data set [1], the “Effect on platelet aggregatory response in rHuEPO treated rats (in words)” value is listed as “platelet aggregatory response is normalized”. In data set [2], the “Hematocrit (%) Average” value is reported as 46.07%, the “Hemoglobin (g/dL) Average” value was determined as 14.77 g/dL and the “RBC count (10^6/μL) Average” value is given as 8.52 10^6/μL. In addition, in data set [3], the “Platelet aggregation (%) Average” value is on record as −2%.
As for “Recombinant Human Erythropoietin [rHuEPO]”, the “% platelet aggregation” value is 59.5 ± 1.4% in data set [1] (ADP (1.25 μM), blood 2 h after antiplatelet treatment); 44.4 ± 2.5% in data set [1] (Arachidonic acid (150 μM)); 60.03 ± 1.9% in data set [1] (Collagen (0.25 μg/ml)); 70.8 ± 1.0% in data set [1] (Thrombin (0.025 IU/ml)); 59.1 ± 3.2% in data set [5] (ADP (1.25 μM), rHuEPO 25 μg/kg, 3 doses, blood 48 h after last dose); 66.4 ± 4.5% in data set [5] (ADP (1.25 μM), rHuEPO 50 μg/kg, 3 doses, blood 48 h after last dose). Also, the “% platelet aggregation” value was determined as 50.6 ± 3.1% in data set [5] (Arachidonic acid (150 μM), rHuEPO 25 μg/kg); 61.3 ± 3.4% in data set [5] (Arachidonic acid (150 μM), rHuEPO 50 μg/kg); 30.5 ± 2.0% in data set [5] (Collagen (0.25 μg/ml), rHuEPO 25 μg/kg); 45.9 ± 3.2% in data set [5] (Collagen (0.25 μg/ml), rHuEPO 50 μg/kg); 56.9 ± 1.7% in data set [5] (Collagen (0.5 μg/ml), rHuEPO 25 μg/kg); 65.9 ± 1.7% in data set [5] (Collagen (0.5 μg/ml), rHuEPO 50 μg/kg). Also, the “% platelet aggregation” value in data set [5] (Thrombin (0.0125 IU/ml), rHuEPO 25 μg/kg) is listed as 37.7 ± 3.0%; in data set [5] (Thrombin (0.0125 IU/ml), rHuEPO 50 μg/kg), 59.5 ± 4.4%. Also, the “Blood urea nitrogen mg/dL Average” value in data set [4] (setting [7]) is 64.33 mg/dL. In data set [4] (setting [7]), the “Serum creatinine mg/dL Average” value is 0.74 mg/dL. Moreover, the “Serum urea mg/dL Average” value in data set [4] (setting [7]) came to 134.33 mg/dL. Further, the “Serum uric acid mg/dL Average” value in data set [4] (setting [7]) is listed as 1.4 mg/dL. In data set [4] (setting [7]), the “Total protein g/dL Average” value was 6.13 g/dL. Besides, the “Effect on kidney function / kidney biomarkers (in words)” value in data set [4] (nephrectomized rats) is “further increase in the serum creatinine, serum urea, serum uric acid, blood urea nitrogen”. For the same compound, the “Effect on platelet aggregation (in words)” value in data set [5] (rHuEPO 25 and 50 μg/kg, s.c., constant concentration of aggregating agents) was “causes increase in platelet aggregation”. In data set [6], the “Bleeding Time” value was 165 ± 28.1 s. Also, the “Hematocrit (%) Average” value in data set [2] is recorded as 62.3%. In data set [2], the “Hemoglobin (g/dL) Average” value turned out to be 20.4 g/dL. Also, in data set [2], the “RBC count (10^6/μL) Average” value is 11.13 10^6/μL. For the same compound, the “Effect on hematological parameters (in words)” value in data set [2] (nephrectomized rats) was “increase in RBC count, hemoglobin and hematocrit”. Moreover, the “Platelet aggregation (%) Average” value in data set [3] is 55%. The “Effect on platelet aggregatory response in nephrectomized rats (in words)” value in data set [3] (ADP, rHuEPO 500 IU/kg, clopidogrel 10 mg/kg) was “platelet aggregation increases”.
